The record followed here is patent publication US4316894A, “Antibiotic SF-1130-x3 3 substance and production and use thereof” (Meiji Seika Kaisha, Ltd., priority 1979, dated 1982).

Molecules are shown by their SMILES. pIC50: −log10 of the molar value.

Test [1] deals with α-glucosidase. As to the kind of experiment: Determination of the activity of inhibiting α-glucosidase. The class given is biochemical, pig. The note with it: measured in the same way as above; read-out: ID50 values (comparison substances, measured in the same way as above). The text has this:
The compound of this invention is useful for highly inhibiting the enzymatic reaction of glucosidase and particularly for inhibiting the enzymatic reaction of α-glucosidase as well as the enzymatic reaction of saccharase. Such the inhibitory activity of the compound of this invention may be estimated according to the following procedure with the α-glucosidase prepared from ileum mucosa of pig as disclosed in the literature "Acta Chem. Scand." vol. 12, page 1997 (1958).
(1) Determination of the activity of inhibiting α-glucosidase. There are prepared the following four solutions:
Solution A: A solution of the enzyme (α-glucosidase) having appropriately been diluted to a desired enzyme concentration with 0.1 M maleate buffered solution (pH 6.0)
Solution B: 0.1 M maleate buffered solution (pH 6.0)
Solution C: An aqueous solution of 0.014 M p-nitrophenyl-α-D-glycoside (as the substrate) in water
Solution D: An aqueous solution of 0.1 M sodium carbonate in water […]
In the above assay, degree (%) of inhibition for the inhibitor sample to the α-glucosidase is calculated according to the following equation: […]

Test [2] in a line: Suppression of elevation of blood sugar level in mice given starch or sucrose orally. The class given is in vivo, ICR-strain male mice. The note with it: test drug 10 mg/kg oral (dose of the x1 + x2 mixture not stated), 30 minutes after administration, ICR male mice, six per group. Here is the method: The test was carried out by the following procedure: Test animal was ICR-strain male mice (six mice per group, weighing 25 g in average) which had been abstained from water for 20 hours. 1 g/kg of starch or 2.5 g/kg of sucrose was orally given to the mice. At the same time, 10 mg/kg of the compound of this invention or 10 mg/kg of deoxynojirimycin as a comparative drug was orally administered to these mice. 30 minutes after the administration, the glucose level in blood was measured.

As for `OC[C@H]1NC(O)[C@H](O)[C@@H](O)[C@@H]1O` (stereo partly drawn) [nojirimycin], the pIC50 in test [1] was 3.44.

On to `OC[C@H]1NC[C@H](O)[C@@H](O)[C@@H]1O` [Deoxynojirimycin], for which the “Blood sugar level, groups receiving starch” value in test [2] (starch 1 g/kg oral) came out at 101 ± 22.9 mg/dL. For the same compound, the “Blood sugar level, groups receiving sucrose” value in test [2] (sucrose 2.5 g/kg oral) was determined as 93 ± 15.4 mg/dL.
